Several values for one entry are separate records, joined by “and”; a condition that tells them apart may be missing. Identical values can stand only once. Like-named read-outs stand apart in the source and are kept apart here.
Experiments:
[1] = tested on: L. donovani (MHOM-ET-67/L82, axenically grown amastigotes); assay: in vitro activity on L. donovani, serial dilution assay; format: cell-based, Leishmania donovani; conditions: for IC50: Leishmania donovani; for Selectivity index (SI) L. donovani: SI = IC50 cytotoxicity (L6)/IC50 in L. donovani
Method: (§1) The in vitro activity was assessed on T. b. rhodesiense (STIB900, trypomastigotes), T. cruzi (Tulahuen C2C4, intracellular amastigotes), L. donovani (MHOM-ET-67/L82, axenically grown amastigotes), P. falciparum (NF54, intraerythrocytic), and L6 cells (ATCC, CRL-1458™, rat skeletal myoblasts) as previously described ([Bernal et al., 2020]). The activities were determined in serial dilution assays with 72 h compound exposure, respectively 96 h for intracellular T. cruzi. Results are expressed in µg/mL for extracts and in µM for pure compounds. The IC50 values were determined for the compounds only when they were <50 µM.

[2] = tested on: P. falciparum (NF54, intraerythrocytic); assay: in vitro activity on P. falciparum, serial dilution assay; format: cell-based, Plasmodium falciparum; conditions: for IC50: Plasmodium falciparum, read-out: IC50 P. falciparum; for Selectivity index (SI) P. falciparum: SI = IC50 cytotoxicity (L6)/IC50 in P. falciparum
Method: as §1

[3] = cytotoxicity in L6 cells; format: cell-based, rat
Method: as §1

[4] = tested on: T. b. rhodesiense (STIB900, trypomastigotes); assay: in vitro activity on T. b. rhodesiense, serial dilution assay; format: cell-based, Trypanosoma brucei rhodesiense; conditions: for Selectivity index (SI) T. b. rhodesiense: SI = IC50 cytotoxicity (L6)/IC50 in T. b. rhodesiense; for IC50: Trypanosoma brucei
Method: as §1

[5] = tested on: T. cruzi (Tulahuen C2C4, intracellular amastigotes); assay: in vitro activity on T. cruzi, serial dilution assay; format: cell-based, Trypanosoma cruzi; conditions: for IC50: Trypanosoma cruzi, TULAHUEN
Method: as §1

[6] = tested on: P. falciparum; conditions: already reported; ref Suksamrarn et al., 2006; Panseeta et al., 2011; Tuenter et al., 2017; read-out: antiplasmodial activity IC50; cited from earlier work
[7] = 72 h, axenic amastigotes, 72 h exposure, means of two independent assays ± deviation from the mean, read-out: IC50 L. donovani
[8] = NF54, 72 h, 72 h exposure, means of two independent assays ± deviation from the mean
[9] = 72 h, 72 h exposure, means of two independent assays ± deviation from the mean, read-out: IC50 T. b. rhodesiense
[10] = 96 h, 96 h exposure, means of two independent assays ± deviation from the mean, read-out: IC50 T. cruzi
[11] = rat, L6 cells (rat skeletal myoblasts, ATCC CRL-1458), rat skeletal myoblast (L6 cells), 72 h exposure, means of two independent assays ± deviation from the mean, read-out: IC50 Cytotoxicity

For COc1ccc2cc1/C=C\NC(=O)[C@H](Cc1ccccc1)NC(=O)[C@@H]1[C@H](CCN1C(=O)[C@@H](NC(=O)C(C)N(C)C)C(C)C)O2 (stereo in doubt) [Compound 10, amphibine H], the IC50 [1, 7] was over 50 µM, the IC50 [2, 8] was 15.1 ± 0.5 µM and the “Selectivity index (SI) P. falciparum” value [2] was over 5.3. The IC50 at 72 h ([3]; rat, IC50 Cytotoxicity) was over 50 µM, the “Selectivity index (SI) T. b. rhodesiense” value [4] was over 2.5 and the IC50 [4, 9] was 30.4 ± 4.6 µM. It also gave an IC50 [5, 10] of over 50 µM.
In the case of O=C(Cn1ccnc1[N+](=O)[O-])NCc1ccccc1 [Benznidazole, reference compound], the IC50 [5, 10] is reported as 2.3 ± 0.2 µM and the IC50 ([5]; 96 h, Table 2, 96 h exposure, means of two independent experiments, read-out: IC50 T. cruzi) is reported as 0.667 µg/mL.
In the case of CCN(CC)CCCC(C)Nc1ccnc2cc(Cl)ccc12 (stereo not drawn) [Chloroquine, reference compound], the IC50 ([2]; NF54, 72 h) is reported as 0.003 µg/mL and 9 nM.
For CCCCCCCCCCCCCCCC(=O)OCC(O)COP(=O)([O-])OCC[N+](C)(C)C (stereo not drawn) [Compound 3, 1-palmitoyl-lysolecithin], the IC50 [1, 7] was over 20 µM, the IC50 [2, 8] was over 10 µM and the IC50 at 72 h ([3]; rat, IC50 Cytotoxicity) was over 20 µM. For the same molecule, the IC50 [4, 9] was over 20 µM and the IC50 ([5]; 96 h, read-out: IC50 T. cruzi) was 12.1 ± 2.4 µM.
In the case of CN[C@@H](C)C(=O)N[C@H](C(=O)N1CC[C@@H]2Oc3ccc(cc3)/C=C\NC(=O)[C@H](Cc3ccccc3)NC(=O)[C@H]21)C(C)C [Compound 4, mauritine F], the IC50 [6] is given as 34.2 µM, the IC50 [1, 7] is given as over 50 µM and the IC50 [2, 8] is given as 24.3 ± 4.5 µM. The “Selectivity index (SI) P. falciparum” value [2] was over 5.5, the IC50 at 72 h ([3]; rat, IC50 Cytotoxicity) was over 50 µM and the IC50 [4, 9] was over 50 µM. It also gave an IC50 [5, 10] of over 50 µM.
Molecule CC(C)[C@H](NC(=O)[C@H](C)N(C)C)C(=O)N1CC[C@@H]2Oc3ccc(cc3)/C=C\NC(=O)[C@H](Cc3ccccc3)NC(=O)[C@H]21 [Compound 5, mauritine A] has an IC50 ([1]; inactive, read-out: IC50 L. donovani (inactive)) of over 50 µM, an IC50 ([2]; NF54, abstract and b45 text) of over 50 µM and an IC50 ([4]; inactive, read-out: IC50 T. b. rhodesiense (inactive)) of over 50 µM. For the same molecule, the IC50 ([5]; inactive, read-out: IC50 T. cruzi (inactive)) was over 50 µM.
For C=C(C)[C@@H]1CC[C@]2(C(=O)O)CC[C@]3(C)[C@H](CC[C@@H]4[C@@]5(C)[C@@H](C(=O)O)[C@H](O)C(C)(C)[C@@H]5CC[C@]43C)[C@@H]12 [Compound 6, ceanothic acid], the IC50 [6] is listed as over 20 µM, the IC50 [1, 7] is listed as 29 ± 3.3 µM and the “Selectivity index (SI) L. donovani” value [1] is listed as over 1.7. The IC50 [2, 8] was over 50 µM, the IC50 at 72 h ([3]; rat, IC50 Cytotoxicity) was over 50 µM and the IC50 [4, 9] was over 50 µM. The IC50 [5, 10] was over 50 µM.
For CN[C@@H](Cc1ccccc1)C(=O)N[C@@H]1C(=O)N[C@@H](CC(C)C)C(=O)N/C=C\c2ccc(cc2)O[C@H]1C(C)C [Compound 7, sanjoinine B], the IC50 [1, 7] was over 50 µM, the IC50 [2, 8] was 23.1 ± 9 µM and the “Selectivity index (SI) P. falciparum” value [2] was over 6.0. It also gave an IC50 at 72 h [3, 11] of over 50 µM, an IC50 [4, 9] of over 50 µM and an IC50 [5, 10] of over 50 µM.
CCC(C)[C@@H]1NC(=O)[C@@H](NC(=O)[C@H](Cc2ccccc2)N(C)C)[C@H](C(C)C)Oc2ccc(cc2)/C=C\NC1=O (stereo partly drawn) [Compound 8, lotusanine A] gave an IC50 [1, 7] of over 50 µM, an IC50 [2, 8] of over 50 µM and an IC50 at 72 h [3, 11] of over 50 µM. For the same molecule, the IC50 [4, 9] was over 50 µM and the IC50 [5, 10] was over 50 µM.
In the case of CC(C)C[C@@H]1NC(=O)[C@@H](NC(=O)[C@H](Cc2c[nH]c3ccccc23)N(C)C)[C@H](C(C)C)Oc2ccc(cc2)/C=C\NC1=O [Compound 9, nummularine K], the IC50 [1, 7] is reported as over 50 µM, the IC50 [2, 8] is reported as 20.7 ± 5.8 µM and the “Selectivity index (SI) P. falciparum” value [2] is reported as 1.6. The IC50 at 72 h [3, 11] was 33.6 ± 4.9 µM, the “Selectivity index (SI) T. b. rhodesiense” value [4] was 2.7 and the IC50 [4, 9] was 12.7 ± 3.8 µM. For the same molecule, the “Selectivity index (SI) T. cruzi” value ([5]; SI = IC50 cytotoxicity (L6)/IC50 in T. cruzi) was 0.8 and the IC50 [5, 10] was 43.6 ± 7.1 µM.
With C=C(C)C12CCC3(CCC4(C)C(CCC5C6(C)C(C(=O)O)C(O)C(C)(C)C6CCC54C)C31)C(=O)O2 (stereo not drawn) [Compound 13] the IC50 [1, 7] was 11.6 ± 2.4 µM, the “Selectivity index (SI) L. donovani” value [1] was over 9.3 and the IC50 [2, 8] was 29.1 ± 4.1 µM. The “Selectivity index (SI) P. falciparum” value [2] was over 3.7, the IC50 at 72 h ([3]; rat, IC50 Cytotoxicity) was over 50 µM and the IC50 [4, 9] was over 50 µM. For the same molecule, the IC50 [5, 10] was over 50 µM.
For C=C(C)[C@@H]1CC[C@]2(C(=O)O)CC[C@]3(C)[C@H](CC[C@@H]4[C@@]5(C)[C@H](C=O)[C@@H](O)C(C)(C)[C@@H]5CC[C@]43C)[C@@H]12 [Compound 14, colubrinic acid], the IC50 ([1]; 72 h, read-out: IC50 L. donovani) was 1.9 ± 0.4 µM, the “Selectivity index (SI) L. donovani” value [1] was over 45 and the IC50 ([2]; NF54, 72 h) was 15.3 ± 4.1 µM. For the same molecule, the “Selectivity index (SI) P. falciparum” value [2] was over 5.5, the IC50 at 72 h ([3]; rat skeletal myoblast (L6 cells), 72 h exposure, means of two independent assays ± deviation from the mean, read-out: IC50 Cytotoxicity) was over 50 µM and the IC50 ([4]; 72 h exposure, means of two independent assays ± deviation from the mean, read-out: IC50 T. b. rhodesiense) was over 50 µM. For the same molecule, the IC50 ([5]; 96 h, read-out: IC50 T. cruzi) was over 50 µM.
